Structures are written as SMILES.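 Results reflect a 48-hour exposure of cells in 96-well plates to compound at five concentrations. GI50: concentration for 50% inhibition of growth.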 Active and inactive are the calls of the source. No stated cut-off is given here; in the data, active = GI50 up to about 1.1 µM and inactive = higher. Bounds are passed on as bounds.

Test systems include DMS-273; RXF 631; HOP-18; LXFL 529; M19-MEL; DMS-114; SNB-78; XF498; DLD-1.
Experiment in all cases: NCI tumour cell line growth inhibition, 48 h

For `Cc1cccc(C(C)C)c1NC(=O)C(=O)CC(=O)c1c(C)[n+]([O-])c2ccccc2[n+]1[O-]`, the GI50 in the experiment with DMS-273 was 33.8 µM (inactive); in the experiment on RXF 631, 18.1 µM (inactive); in the experiment on HOP-18, 96.4 µM (inactive); in the experiment with LXFL 529, 34 µM (inactive); with M19-MEL, 19.8 µM (inactive); in the experiment on DMS-114, 16.5 µM (inactive). The GI50 with SNB-78 is 49 µM (inactive).

`O=S(=O)(/C=C/C(=C/c1ccccc1)S(=O)(=O)c1ccccc1)c1ccccc1`: the GI50 with XF498 was 1.7 µM (inactive); in the experiment with DMS-273 it was 1.52 µM (inactive); in the experiment on RXF 631 it was 1.07 µM (active); with LXFL 529, 1.7 µM (inactive); in the experiment on DMS-114 it was 1.57 µM (inactive).

On to `CNC(=O)OCc1nc(SSC(C)(C)C)n(C)c1COC(=O)NC`, for which the GI50 in the experiment with XF498 is 2.32 µM (inactive); with DMS-273, 5.97 µM (inactive); in the experiment on DLD-1, 1.43 µM (inactive); in the experiment with RXF 631, 1.73 µM (inactive); in the experiment on HOP-18, 5.18 µM (inactive); in the experiment with LXFL 529 it was 1.24 µM (inactive). Also, the GI50 with M19-MEL was 3.32 µM (inactive); in the experiment with DMS-114, 1.72 µM (inactive); in the experiment on SNB-78 it was 7.83 µM (inactive).

Consider `COC(=O)c1cccc2cccc(C(=O)Nc3ccc(Cl)cc3)c12`, for which the GI50 was > 73.3 µM (inactive) with XF498; 0.729 µM (active) with DMS-273; > 21.7 µM (inactive) in the experiment on DLD-1; > 86.1 µM (inactive) in the experiment with RXF 631; > 100 µM (inactive) in the experiment with HOP-18; 0.474 µM (active) in the experiment with LXFL 529. Further, the GI50 in the experiment on M19-MEL is 4.35 µM (inactive); with DMS-114 it was 14.8 µM (inactive); in the experiment with SNB-78 it was 56.1 µM (inactive).

`CC1OC(n2cc(Cl)c(=O)[nH]c2=O)C=C(OC(=O)c2ccccc2)C1=O` (stereo not drawn): the GI50 in the experiment on XF498, with DMS-273, in the experiment with DLD-1, in the experiment on RXF 631, in the experiment with HOP-18 and in the experiment on M19-MEL was > 100 µM (inactive) in each case. Further, the GI50 in the experiment with DMS-114 and in the experiment on SNB-78 was > 100 µM (inactive) each time.

Consider `C=C(c1ccccc1N)[C@@]1(O)C[C@H](/C(=C\C)CO)C[C@@H]1NCc1ccccc1`, for which the GI50 in the experiment with DMS-273 is 28.6 µM (inactive); in the experiment on HOP-18, 20.4 µM (inactive); with M19-MEL, 23.6 µM (inactive); with DMS-114, 17 µM (inactive); in the experiment with SNB-78 it was 25.2 µM (inactive).

Take `c1ccc2c(c1)c1ccccc1c1n[se]nc21`: the GI50 is 31.5 µM (inactive) in the experiment on XF498; > 100 µM (inactive) in the experiment with DMS-273; > 100 µM (inactive) in the experiment with DLD-1; 89.7 µM (inactive) with RXF 631; < 0.01 µM (active) with HOP-18; 21.8 µM (inactive) with LXFL 529. Further, the GI50 with DMS-114 and with SNB-78 was > 100 µM (inactive) in each case.

`O=C(NC(c1ccccc1)C(O)C(=O)OCc1ccc2c(c1)C(=O)c1ccccc1C2=O)c1ccccc1` (stereo not drawn): the GI50 was 16 µM (inactive) with XF498; 18.6 µM (inactive) in the experiment with DMS-273; 21.2 µM (inactive) with DLD-1; 30.5 µM (inactive) in the experiment on RXF 631; 3.56 µM (inactive) in the experiment with HOP-18; 44.7 µM (inactive) in the experiment on LXFL 529. Moreover, the GI50 is 53.6 µM (inactive) with M19-MEL, 12.6 µM (inactive) in the experiment on DMS-114 and 56.6 µM (inactive) in the experiment with SNB-78.

Take `S=P(c1ccccc1)(c1ccccc1)C1(C2(P(=S)(c3ccccc3)c3ccccc3)CC2)CC1`: the GI50 in the experiment with XF498, with DMS-273, in the experiment on DLD-1, in the experiment with RXF 631, with LXFL 529 and in the experiment on M19-MEL was > 100 µM (inactive) in each case. For the same compound, the GI50 in the experiment with DMS-114 and in the experiment on SNB-78 was > 100 µM (inactive) in each case.

On to `C#CCN(N=O)C(=O)NCCCCC(NC(=O)OCc1ccccc1)C(=O)OCc1ccccc1` (stereo not drawn), for which the GI50 in the experiment on XF498 is 29.9 µM (inactive); in the experiment with DMS-273 it was 84.3 µM (inactive); in the experiment on DLD-1, 29 µM (inactive); in the experiment on HOP-18 it was > 100 µM (inactive); in the experiment with LXFL 529 it was 19.1 µM (inactive); with M19-MEL, 23.3 µM (inactive). Moreover, the GI50 with SNB-78 is 46.2 µM (inactive).

Turning to `Cc1cc(NS(=O)(=O)c2ccc(Nc3c4ccccc4nc4c(C(=O)Nc5ccc(S(N)(=O)=O)cc5)cccc34)cc2)no1`, the GI50 was 20.9 µM (inactive) with XF498; > 100 µM (inactive) in the experiment with DMS-273; > 100 µM (inactive) in the experiment with DLD-1; > 100 µM (inactive) in the experiment with HOP-18; 21.1 µM (inactive) in the experiment on LXFL 529; 25.1 µM (inactive) in the experiment with M19-MEL. The GI50 is 28.5 µM (inactive) with DMS-114 and 23.9 µM (inactive) in the experiment with SNB-78.

For `O=C(CSc1nc(-c2ccccc2)c(-c2ccccc2)[nH]1)N/N=C/c1ccc(O)cc1`, the GI50 in the experiment on XF498 was 28.5 µM (inactive); in the experiment on DMS-273 it was 18.3 µM (inactive); in the experiment on DLD-1, 36.7 µM (inactive); in the experiment with HOP-18 it was 12.2 µM (inactive); with LXFL 529, 30.5 µM (inactive); in the experiment with M19-MEL, 19.4 µM (inactive). Moreover, the GI50 with DMS-114 is 22.1 µM (inactive); in the experiment on SNB-78 it was 37.9 µM (inactive).

In the case of `COC(=O)/C1=C/C2CC(/C=C(/c3ccccc3)C(=O)O1)C2`, the GI50 in the experiment with XF498 was 22 µM (inactive); in the experiment on DMS-273 it was 21.5 µM (inactive); with DLD-1, 22.8 µM (inactive); in the experiment on HOP-18 it was 27.5 µM (inactive); in the experiment with M19-MEL, 23.1 µM (inactive); with DMS-114, 19 µM (inactive).

On to `NC1=C2C(Br)=CN([C@@H]3O[C@H](CO)[C@@H](O)[C@@H]3O)C2C(=O)N=N1` (stereo partly drawn), for which the GI50 in the experiment on DMS-273 is 1.97 µM (inactive); in the experiment on DLD-1, 0.76 µM (active); in the experiment with RXF 631, 0.516 µM (active); in the experiment on HOP-18, 5.68 µM (inactive); in the experiment with LXFL 529, 8.47 µM (inactive); with M19-MEL, 15.5 µM (inactive). Further, the GI50 with DMS-114 is 4.94 µM (inactive); in the experiment with SNB-78, 30.9 µM (inactive).

Consider `NS(=O)(=O)c1cc2c(cc1Cl)NC(/C(=N/NC(=O)c1ccncc1)C1C(=O)NC(=O)NC1=O)=NS2(=O)=O`, for which the GI50 in the experiment with DMS-273, in the experiment with DLD-1, in the experiment on RXF 631, with LXFL 529, in the experiment with M19-MEL and in the experiment with DMS-114 was > 100 µM (inactive) each time. The GI50 in the experiment on SNB-78 is > 100 µM (inactive).

`COc1cc2c(oc(=O)c3c4occc4cc(OC)c23)c2cccc(O)c12`: the GI50 in the experiment with XF498, with DMS-273, in the experiment with DLD-1, in the experiment on HOP-18, with LXFL 529 and with M19-MEL was > 100 µM (inactive) in each case. Also, the GI50 with DMS-114 and with SNB-78 was > 100 µM (inactive) throughout.

Regarding `N#CC(c1ccc(Cl)cc1)c1cccc(C(C#N)c2ccc(Cl)cc2)n1` (stereo not drawn), the GI50 was 5.13 µM (inactive) with XF498; 37.2 µM (inactive) in the experiment with DLD-1; 7.78 µM (inactive) in the experiment with LXFL 529; 19.6 µM (inactive) in the experiment on M19-MEL; 20.7 µM (inactive) in the experiment on SNB-78.

Turning to `COc1ccc(C=O)c(N(C)C(=O)C(C)(C)C)c1`, the GI50 is 17.1 µM (inactive) with XF498; > 100 µM (inactive) with DMS-273; > 100 µM (inactive) in the experiment with RXF 631; > 100 µM (inactive) in the experiment with HOP-18; > 100 µM (inactive) in the experiment with M19-MEL; > 100 µM (inactive) in the experiment with DMS-114. For the same compound, the GI50 in the experiment with SNB-78 is > 100 µM (inactive).

Regarding `Cc1noc2cccc(O)c12`, the GI50 in the experiment with XF498, with DMS-273, with DLD-1, with HOP-18, with LXFL 529 and with M19-MEL was > 100 µM (inactive) each time. In addition, the GI50 with DMS-114 and in the experiment on SNB-78 was > 100 µM (inactive) throughout.

As for `CO[C@H]1C[C@](C)(O)Cc2cc3c(c(O)c21)C(=O)c1c(O)cc2c(c1C3=O)O[C@@H]1O[C@@]2(C)[C@H](O)[C@@H](N(C)C)[C@@H]1O`, the GI50 in the experiment with XF498 is 0.147 µM (active); with DMS-273, 0.215 µM (active); in the experiment on DLD-1, 2.81 µM (inactive); in the experiment on RXF 631 it was 0.902 µM (active); in the experiment on HOP-18, 0.859 µM (active); with LXFL 529, 1.96 µM (inactive). Besides, the GI50 in the experiment with M19-MEL is 1.11 µM (active); in the experiment on DMS-114 it was 0.456 µM (active); with SNB-78, 3.87 µM (inactive).

Consider `CC(/C=C1\CCC(CN(C)C)C1=O)c1cccc(Br)c1` (stereo not drawn), for which the GI50 in the experiment with XF498 is 20.6 µM (inactive); with DLD-1, 9.57 µM (inactive); in the experiment on RXF 631, 7.91 µM (inactive); with HOP-18 it was 18.7 µM (inactive); in the experiment on LXFL 529, 5.62 µM (inactive); in the experiment on M19-MEL, 20.7 µM (inactive). Moreover, the GI50 is 19.7 µM (inactive) in the experiment with DMS-114 and 16.4 µM (inactive) in the experiment on SNB-78.

In the case of `Cc1cc(NS(=O)(=O)c2ccc(NC(=O)c3cccc4c(N)c5ccccc5nc34)cc2)no1`, the GI50 with XF498 was 21.8 µM (inactive); in the experiment on DMS-273 it was 19.2 µM (inactive); with DLD-1 it was 30.6 µM (inactive); in the experiment on RXF 631 it was 18.4 µM (inactive); with LXFL 529 it was 32 µM (inactive); with M19-MEL, 21.2 µM (inactive). The results for the GI50 in the experiment with DMS-114 and with SNB-78 were 22.2 µM (inactive) and 27.5 µM (inactive), respectively.

Consider `COc1nc(=O)cc(N)n1C1OC(CO)C(O)C1O` (stereo not drawn), for which the GI50 in the experiment with DMS-273, in the experiment with DLD-1, with LXFL 529, in the experiment on M19-MEL, with DMS-114 and in the experiment on SNB-78 was > 100 µM (inactive) in each case.

Turning to `N#C/C(=C/c1ccc([N+](=O)[O-])o1)c1ccccc1`, the GI50 with DMS-273, in the experiment with DLD-1, in the experiment on HOP-18, with LXFL 529, in the experiment with M19-MEL and in the experiment with DMS-114 was > 100 µM (inactive) in each case. For the same compound, the GI50 in the experiment with SNB-78 is > 100 µM (inactive).

These data come from ChEMBL document CHEMBL1201862, “PubChem BioAssay data set” (2004).
